Results from PMC2930754 (Chemical communications (Cambridge, England), 2010).

How the values were obtained:
[1] = system: A2780 ovarian cancer cells; assay: Antiproliferative activity to A2780 ovarian cancer cells; type: cell-based; conditions: Homo sapiens, A2780, read-out: IC50 A2780 (antiproliferative activity)
tubulin = assay: Promotion of in vitro tubulin polymerization; type: biochemical; conditions: in vitro tubulin assembly

| Structure (SMILES) | IC50 [1] [nM] | ED50, Tb polym. (promotion of tubulin polymerization) (tubulin) [nM] |
| --- | --- | --- |
| C/C(=C\c1csc(C)n1)[C@@H]1C[C@@H]2O[C@]2(C)CCC[C@H](C)[C@H](O)[C@@H](C)C(=O)C(C)(C)[C@@H](O)CC(=O)O1 [Compound 2, epothilone B] | 1.9 ± 0.2 | – |
| C/C1=C/C[C@@H](/C(C)=C/c2csc(C)n2)OC(=O)C[C@H](O)C(C)(C)C(=O)[C@H](C)[C@@H](O)[C@@H](C)CCC1 [Compound 4, epothilone D] | 6.8 ± 1.7 | 440 ± 20 |
